Experimental data: patent US20260131324A1, “A CONTAINER FOR IN VITRO DRUG TESTING” (National University of Singapore, priority 2022, published 2026)

Columns and labels:
[1] = Diffusion through hydrogel container (version 2.0) in USP apparatus IV, PBS medium; type: physicochemical; conditions: at 8.25 h; caffeine stock solution 4 mg/mL, 1 mL; 100 mL PBS; 34 C
Method: The compendial flow-through cell 504 of the USP apparatus IV 502 is an enclosed system with a heating mantle that allows a controlled medium flow from the bottom to the top of the cell 504. The ring 114 was mounted onto a cylindrical mould and the gel composition was filled into the mould. A punch was used to create interior pockets of similar size. The drug formulation 106 was then injected into the interior pocket of the receptacle 102, and the ring 114 was sealed with a rubber plug 116. The USP apparatus IV 502, as well as the various flow-through cells 504, have been described by various pharmacopoeias and related literature. For this diffusion experiment, a SOTAX CP7-35 Piston Pump 506, alone with a fraction collector 508 and the SOTAX CE7 dissolution system, was used. Media 510 was filled into the reservoir 512 with magnetic stirrers running at 150 rpm. The dissolution apparatus was operated in a closed-loop configuration with a constant flow of 8±0.4 mL/min for all experiments. […] Caffeine was quantified with a ultraviolet-visible (UV/Vis) spectrometer. Subsequently, the cumulative diffusion of caffeine was calculated by comparing the diffused amount with the initially added drug concentration. […] In the next step, new containers 100 were evaluated with Actrapid® and […]®. […]

[2] = Proof-of-concept model: diffusion through agarose hydrogel container (version 1.0) in modified flow-through cell; type: physicochemical; conditions: plateau at about 7 h, PBS with Tween 80
Description: FIG. 4A illustrates a hydrogel container 402 (left) and a modified flow-through cell 404 (right) used as a proof-of-concept model for the diffusion experiment shown in the first flow chart 300A of FIG. 3. The proof-of-concept model was designed to affirm the discriminative power of an agarose hydrogel under continuous media flow. Serving as a physicochemical barrier between drug and media, it is supposed to generate data ascertaining differences in diffusion behaviour and gel interaction of closely related drug formulations. For this, Actrapid® (regular human insulin, hexamer) and Apidra® (insulin glulisine) were chosen as model peptide formulations for the initial setup. m-Cresol, present in both formulations, was quantified as well, serving as an internal standard.
A cylindrical gel that forms both the physicochemical barrier and pocket was prepared with the help of custom-made plastic receptacles. The gel consists of 2% (w/w) agarose dissolved in PBS. […] After cooling at room temperature, the gel is formed and ready to use. […]
FIG. 4B illustrates an assay setup for the proof-of-concept model of FIG. 4A for in vitro drug testing. […] Quantification of insulin and m-cresol in the medium was then carried out by HPLC. Subsequently, the cumulative diffusion of the model drugs was calculated by comparing the diffused amount with the initially added drug concentration. […]

SMILES | cumulative diffusion of caffeine [1] | cumulative diffusion of m-cresol, maximum ([2]; m-cresol inside Apidra) [%] | cumulative diffusion of m-cresol, plateau ([2]; m-cresol inside the Actrapid formulation) [%]
Cn1c(=O)c2c(ncn2C)n(C)c1=O [caffeine] | around 101±3% |  | 
Cc1cccc(O)c1 [m-cresol, m-Cresol] |  | 88±0.2 | 84±1.0
